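Step 1: Grow cells in 96-well plates. Step 2: Expose to compound for 48 hours at 5 concentrations. Step 3: Interpolate endpoints linearly; if unreached, use highest concentration. GI50 marks 50% less growth. TGI: concentration producing complete growth inhibition.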
What was measured:
Assay in all cases: NCI tumour cell line growth inhibition, 48 h
[1] = system: DLD-1 colon
[2] = system: KM20L2 colon
[3] = system: LXFL 529 NSCLC
[4] = system: M19-MEL melanoma
[5] = system: RXF-631 renal
[6] = system: SNB-78 CNS
[7] = system: XF 498 CNS
[8] = system: MDA-N
[9] = system: HOP-18 NSCLC

| SMILES | TGI [1] | TGI [2] | TGI [3] | TGI [4] | TGI [5] | TGI [6] | TGI [7] | TGI [8] | TGI [9] | GI50 [1] | GI50 [9] | GI50 [2] | GI50 [3] | GI50 [6] |
| --- | --- | --- | --- | --- | --- | --- | --- | --- | --- | --- | --- | --- | --- | --- |
| Cc1ccc(NC(=O)C2C(=O)N(c3ccc(C)c(C)c3)C(=O)/C2=N\NC(N)=S)cc1C (stereo unspecified) | > 100 µM | > 100 µM | > 100 µM | > 100 µM | > 100 µM | > 100 µM | > 100 µM |  |  |  |  |  |  |  |
| BrC1=CC=C2NCCCCCCN=C3C=CC(Br)=CC=C3NCCCCCCN=C2C=C1 | > 25.5 µM | > 25.5 µM |  | > 25.5 µM | > 25.5 µM | > 25.5 µM |  |  |  |  |  |  |  |  |
| CC(O)(CNS(=O)(=O)c1ccccc1)c1ccccc1 (stereo unspecified) |  |  |  |  |  |  |  | > 100 µM |  |  |  |  |  |  |
| O=S(=O)(O)c1cc(N=Nc2cc(S(=O)(=O)O)c3cccnc3c2O)ccc1/C=C/c1ccc(N=Nc2cc(S(=O)(=O)O)c3cccnc3c2O)cc1S(=O)(=O)O | > 100 µM | > 100 µM | > 100 µM | > 100 µM | > 100 µM | > 100 µM | > 100 µM | > 100 µM | > 100 µM |  |  |  |  |  |
| c1cc(-c2cn[nH]c2)cc(-c2cn[nH]c2)c1 | > 100 µM | > 100 µM |  | > 100 µM | > 100 µM | > 100 µM |  |  |  |  |  |  |  |  |
| Cc1[nH]nc2c1C(=O)C=C(N(CCO)c1ccccc1)C2=O | > 100 µM |  | > 100 µM | > 100 µM |  | > 100 µM |  |  | > 100 µM |  |  |  |  |  |
| Cc1nc(Nc2ccccc2)sc1C(=O)NNc1ccc([N+](=O)[O-])cc1[N+](=O)[O-] | > 100 µM | > 100 µM | > 100 µM | > 100 µM |  | > 100 µM | 55.3 µM |  | > 100 µM |  |  |  |  |  |
| CN(C)CC1(Cc2ccccc2)CCC(Cc2ccccc2)C1=O (stereo unspecified) | 8.26 µM | 32.4 µM | 7.32 µM | 32 µM |  | 43.4 µM | 36.3 µM | 25 µM | 21.3 µM |  |  |  |  |  |
| O=[N+]([O-])[O-].O=[N+]([O-])[O-].[Au].[Au].c1ccc([P-]c2ccccc2)cc1.c1ccc([P-]c2ccccc2)cc1 | > 100 µM | > 100 µM | 32.7 µM |  |  | > 100 µM |  |  | 37.6 µM | 47 µM | 18.5 µM | 36.4 µM | 14.2 µM | 61 µM |
| Cn1c2ccccc2c(=O)c2c([N+](=O)[O-])ccc(NCCN)c21 |  | 24.1 µM | 21.1 µM | 26 µM |  | 31.3 µM | 28.7 µM |  | 26.4 µM |  |  |  |  |  |
| O=C(O)/C(=C\c1ccccc1Cl)S(=O)(=O)c1ccccc1 | > 100 µM | > 100 µM | > 100 µM | > 100 µM | > 100 µM | > 100 µM |  |  | > 100 µM |  |  |  |  |  |
| COc1cc2c([C@@H](OC(=O)c3ccccc3)c3ccc4c(c3)OCO4)nccc2c(OC)c1OC | > 100 µM | > 100 µM | > 100 µM | > 100 µM | > 100 µM | > 100 µM | 90.9 µM |  | > 100 µM |  |  |  |  |  |
| COC(=O)NC(=O)c1cn(CCCOC(=O)CCCCCCCCC(=O)OCCCn2cc(C(=O)NC(=O)OC)c(=O)[nH]c2=O)c(=O)[nH]c1=O | > 100 µM | > 100 µM | > 100 µM | > 100 µM | > 100 µM | > 100 µM | 58.8 µM |  | > 100 µM |  |  |  |  |  |
| CN1CCN(CCNc2ccc(CO)c3sc4ccccc4c(=O)c23)CC1 | 53.2 µM | 17.7 µM | 22.6 µM | 25.7 µM |  |  |  |  |  |  |  |  |  |  |
| CCCCCCCCCCCC(=O)c1c(O)cccc1O | 33.8 µM | 48.5 µM | 32.6 µM | 34.5 µM | 35.5 µM | 43.9 µM | 32.4 µM |  | 31 µM |  |  |  |  |  |
| O=S(=O)(O)/C(=C\c1ccccc1)c1ccccc1 (tested in a mixture with another compound) |  |  |  |  |  |  |  | > 100 µM |  |  |  |  |  |  |
| CC1CCP(=O)(c2ccccc2)CC1 (stereo unspecified) | > 100 µM | > 100 µM | > 100 µM | > 100 µM | > 100 µM | > 100 µM | > 100 µM |  |  |  |  |  |  |  |

Source: PubChem BioAssay (NCI)
